Among the data in patent publication US9394285B2 (Pfizer Inc., priority 2013, dated 2016) are EC50, Emax and Maximum values, retold here.

SMILES strings stand for the structures.

In general, EC50 refers to the concentration at which the effect is half-maximal. A high value points to weaker potency.

This test deals with human AMPK (full-length γ1, β1 and α1 subunits) (Homo sapiens (Human), UniProt Q13131+Q9Y478). The test is described as follows: AMPK in vitro biochemical assay (33P-based, SAMS peptide, PP2A dephosphorylation). The following applies: for EC50: activation of phosphorylated AMPK, 33P-ATP, SAMS peptide, PP2A treatment, 4-parameter fit; for Emax / Maximum: counts as % of positive control wells (enzyme, allosteric activator or AMP, PP2A and substrate); for Emax: read-out: Maximum. From the text: We designed a tricistronic AMPK expression construct that included open reading frames encoding the full-length γ1, β1 and α1 subunits of human AMPK with a ribosome-binding site (RBS) ahead of each coding region and subcloned this into pET-14b expression vector (Novagen, Madison, Wis.) using standard molecular biology techniques. AMPK tricistronic construct was transformed into E. coli BL21-CodonPlus™ (DE3)-RIPL strain (Stratagene) and transformants were selected on LB (Luria-Bertani) agar plates containing ampicillin (100 μg/ml). […] Optical density sample measurements were made on an UltroSpec 2000 spectrophotometer (Pharmacia Biotech) at 600 nm. When the cell density reached ˜0.9 OD, the temperature was reduced to 18° C. and the culture was induced at 18° C. with 0.1 mM Isopropylthiogalactoside (IPTG). […] The cell pellets were aliquoted into four portions, flash frozen in liquid nitrogen and were stored at −80° C. until purification. For purification, frozen cell paste was thawed and resuspended in 50 ml lysis buffer (50 mM Tris, pH 8.0, 150 mM NaCl, 10% glycerol, 2 mM Tris-2-carboxyethyl phosphine (TCEP), 20 mM imidazole and 0.001% Triton X-100). After sonication, insoluble material was removed by centrifugation at 15,000 rpm in a Sorvall® RC5 plus centrifuge for 30 min at 4° C. and the supernatant was loaded onto a 5 ml HisTrap™ HP column (GE Healthcare, Piscataway, N.J.) and washed with five column volumes of lysis buffer. Bound proteins were eluted using an elution buffer containing 300 mM imidazole. Fractions containing AMPK subunits were pooled based on SDS-10% PAGE analysis and dialyzed overnight in dialysis buffer (50 mM Tris, pH 8.0, 150 mM NaCl, 10% glycerol, 2 mM TCEP, and 0.001% Triton X-100). […] The phosphorylated AMPK complex was re-purified on HisTrap™ HP column as before, dialyzed over night in dialysis buffer. The phosphorylated AMPK complex was further purified by gel filtration chromatography with a Superdex 200 HiLoad 16/60 column (GE Healthcare) in SEC buffer (50 mM Tris, pH 8.0, 150 mM NaCl, 10% glycerol, 2 mM TCEP, and 0.001% Triton X-100).
The harvest time (72 hours post infection) was indicated by percent cell viability (to 85-90%) and increased cell diameter (3-4 μm). […] For purification, the cell paste was resuspended in 500 mL lysis buffer (50 mM Tris pH 8.0, 150 mM NaCl, 25 mM imidazole, 10% glycerol, 2 mM MgCl2, 2 mM TCEP+protease inhibitor cocktail. After lysis, cellular debris was removed by centrifugation at 36K×g for 1 hour. The resulting supernatant was filtered at 0.2 micron before applying to a 1 mL nickel charged IMAC column (HisTrap, GE). The bound resin was washed to baseline with 50 CV of 50 mM Tris pH 8.0, 150 mM NaCl, 25 mM imidazole, 10% glycerol, 2 mM MgCl2, 2 mM TCEP before eluting over a 20 CV gradient to 100% with wash buffer containing 500 mM imidazole. Pooled fractions containing PP2A were combined and diluted 10× with 50 mM Tris pH 8.0, 10% glycerol, 1 mM TCEP and applied to a 1 mL AIEX resin (HiTrap QFF, GE). The bound resin was washed with dilution buffer and PP2A was eluted over a 20 CV gradient to 100% 50 mM Tris pH 8.0, 500 mM NaCl, 10% glycerol, 1 mM TCEP and was further diluted 1:1 with 50 mM Tris pH 8.0, 150 mM NaCl, 10% glycerol, and 1 mM TCEP buffer.
The biochemical EC50 (half-maximal concentration required for full activation) of compounds for the activation of AMPK was evaluated by ^33P-based assay using SAMS peptide (commercially available) derived from ACC-1. Twenty μl of phosphorylated AMPK diluted in assay buffer, (50 mM HEPES, 1 mM EGTA, 10 mM MgCl2, 0.25 mM DTT, 0.01% Tween-20, 0.01% BSA (pH 7.5)) was added to 384 well plates containing 1 μL of test compound. Following a fifteen minute room temperature incubation, 10 μL of protein phosphatase PP2A was added to the plate to dephosphorylate pThr172 of AMPK. […] The reaction was terminated after 60 minutes incubation at room temperature by the addition of 15 μL of 2% H3PO4.

Sequence of human AMPK (full-length γ1, β1 and α1 subunits) (Q13131 whole entry): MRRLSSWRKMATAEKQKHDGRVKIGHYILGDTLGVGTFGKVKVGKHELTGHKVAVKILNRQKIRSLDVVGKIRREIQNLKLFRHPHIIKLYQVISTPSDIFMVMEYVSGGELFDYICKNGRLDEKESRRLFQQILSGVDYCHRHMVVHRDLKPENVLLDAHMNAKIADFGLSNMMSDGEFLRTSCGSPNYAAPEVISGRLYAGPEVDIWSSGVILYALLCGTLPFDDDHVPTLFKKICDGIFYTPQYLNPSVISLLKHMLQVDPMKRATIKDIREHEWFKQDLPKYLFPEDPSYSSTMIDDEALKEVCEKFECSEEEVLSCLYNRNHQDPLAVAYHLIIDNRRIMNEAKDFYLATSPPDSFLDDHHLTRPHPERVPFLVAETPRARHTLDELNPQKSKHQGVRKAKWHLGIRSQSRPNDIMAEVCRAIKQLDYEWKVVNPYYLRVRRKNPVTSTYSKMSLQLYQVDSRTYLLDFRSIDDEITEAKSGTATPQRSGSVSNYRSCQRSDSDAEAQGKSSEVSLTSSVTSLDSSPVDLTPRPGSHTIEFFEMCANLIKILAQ
Sequence of human AMPK (full-length γ1, β1 and α1 subunits) (Q9Y478 whole entry): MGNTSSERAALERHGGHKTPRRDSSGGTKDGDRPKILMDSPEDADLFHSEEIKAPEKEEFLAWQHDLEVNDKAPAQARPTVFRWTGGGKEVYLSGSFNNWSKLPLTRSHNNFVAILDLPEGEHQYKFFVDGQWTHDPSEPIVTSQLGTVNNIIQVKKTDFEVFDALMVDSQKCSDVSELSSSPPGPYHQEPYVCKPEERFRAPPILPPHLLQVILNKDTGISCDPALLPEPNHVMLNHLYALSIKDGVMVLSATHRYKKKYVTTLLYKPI
Sequence of human AMPK (full-length γ1, β1 and α1 subunits) (P54619 whole entry partner): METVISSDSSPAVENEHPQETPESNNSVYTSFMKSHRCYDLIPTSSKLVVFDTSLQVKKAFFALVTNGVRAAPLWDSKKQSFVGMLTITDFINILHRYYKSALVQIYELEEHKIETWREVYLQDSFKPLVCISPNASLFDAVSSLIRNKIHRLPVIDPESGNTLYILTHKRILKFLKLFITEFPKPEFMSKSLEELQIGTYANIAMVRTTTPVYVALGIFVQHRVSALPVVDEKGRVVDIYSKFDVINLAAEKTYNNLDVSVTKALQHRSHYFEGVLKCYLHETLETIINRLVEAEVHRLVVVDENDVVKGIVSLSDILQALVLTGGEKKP

`COc1cccc(-c2cc3c(C(=O)O)c[nH]c3cc2Cl)c1` [Example 29, 6-chloro-5-(3-methoxyphenyl)-1H-indole-3-carboxylic acid]: the EC50 is 383 nM and the Emax came to 101%.

As to `O=C(O)c1c[nH]c2cc(F)c(-c3ccc(C4CCCCO4)cc3)cc12` (single isomer, unassigned) [Example 172, 6-fluoro-5-[4-(tetrahydro-2H-pyran-2-yl)phenyl]-1H-indole-3-carboxylic acid], the EC50 came out at 11 nM and the Maximum was found to be 101.1%.

`COc1nc(N2CC[C@@H](O)C2)ccc1-c1cc2c(C(=O)O)c[nH]c2cc1Cl` [Example 185, 6-chloro-5-{6-[(3R)-3-hydroxypyrrolidin-1-yl]-2-methoxypyridin-3-yl}-1H-indole-3-carboxylic acid]: the EC50 came to 2.9 nM and the Emax stood at 106%.

Consider `O=C(O)c1c[nH]c2cc(Cl)c(-c3ccc(OCC4COC4)cc3)cc12` [Example 89, 6-chloro-5-[4-(oxetan-3-ylmethoxy)phenyl]-1H-indole-3-carboxylic acid], for which a half-maximal response (EC50) required 65.4 nM and the Emax came out at 99%.

Consider `O=C(O)c1c[nH]c2cc(Cl)c(-c3ccc(C4CNC4)cc3)cc12` [Example 91, 5-[4-(azetidin-3-yl)phenyl]-6-chloro-1H-indole-3-carboxylic acid], for which the concentration giving a half-maximal response (EC50) amounted to 695 nM and the Emax is 101%.

As to `O=C(O)c1c[nH]c2cc(Cl)c(-c3ccc(OC[C@@H]4CCCN4)cc3)cc12` [Example 47, 6-chloro-5-{4[(2S)-pyrrolidin-2-ylmethoxy]phenyl}-1H-indole-3-carboxylic acid], the EC50 was determined as 65.3 nM and the Emax amounted to 96%.

As to `O=C(O)c1c[nH]c2cc(Cl)c(-c3ccc(OCCO)c(F)c3)cc12` [Example 81, 6-chloro-5-[3-fluoro-4-(2-hydroxyethoxy)phenyl]-1H-indole-3-carboxylic acid], the EC50 came out at 182 nM and the Emax came to 97%.

Consider `O=C(O)c1c[nH]c2cc(Cl)c(-c3ccc(CC(=O)N4CCOCC4)cc3)cc12` [Example 77, 6-chloro-5-{4-[2-(morpholin-4-yl)-2-oxoethyl]phenyl}-1H-indole-3-carboxylic acid], for which the midpoint of the response, the EC50, lay at 207 nM and the Emax is 89%.

As for `CC(C)(CO)COc1ccc(-c2cc3c(C(=O)O)c[nH]c3cc2Cl)cc1` [Example 21], the response was half-maximal at 93.5 nM (EC50) and the Emax was 86%.

On to `O=C(O)c1c[nH]c2cc(Cl)c(-c3ccc(C4(CO)COC4)cc3)cc12` [Example 96, 6-chloro-5-{4-[3-(hydroxymethyl)oxetan-3-yl]phenyl}-1H-indole-3-carboxylic acid], for which the EC50 is 58.1 nM and the Emax came to 83%.

For `CC(C)Oc1ccc(-c2cc3c(C(=O)O)n[nH]c3cc2Cl)cc1` [Example 100, 6-Chloro-5-(4-isopropoxyphenyl)-1H-indazole-3-carboxylic acid], the EC50 was 190 nM and the Emax came out at 80%.

With `CS(=O)(=O)N1CCC1c1ccc(-c2cc3c(C(=O)O)c[nH]c3cc2Cl)cc1` (stereo not drawn) [Example 45, 6-chloro-5-{4-[1-(methylsulfonyl)azetidin-2-yl]phenyl}-1H-indole-3-carboxylic acid], the half-maximal effective concentration (EC50) turned out to be 225 nM and the Emax amounted to 94%.

For the molecule `O=C(O)c1c[nH]c2cc(Cl)c(-c3cnc(N4CCOCC4)nc3)cc12` [Example 76, 6-chloro-5-[2-(morpholin-4-yl)pyrimidin-5-yl]-1H-indole-3-carboxylic acid], the EC50 amounted to 271 nM and the Emax is 104%.

`O=S(=O)(O)c1c[nH]c2cc(Cl)c(-c3ccc(C4CCOCC4)cc3)cc12` [Example 134, 6-Chloro-5-(4-(tetrahydro-2H-pyran-4-yl)phenyl)-1H-indole-3-sulfonic acid]: the EC50 is 82.8 nM and the Emax turned out to be 16%.

Regarding `COc1ccc(-c2cc3c(C(=O)O)n[nH]c3cc2C)c(F)c1` [Example 98, 5-(2-Fluoro-4-methoxyphenyl)-6-methyl-1H-indazole-3-carboxylic acid], the EC50 was found to be 1050 nM and the Emax stood at 83%.

As to `O=C(O)c1c[nH]c2cc(Cl)c(-c3ccc([C@H]4C[C@H](O)C4)cc3)cc12` [Example 138, 6-Chloro-5-[4-(trans-3-hydroxycyclobutyl)phenyl]-1H-indole-3-carboxylic acid], the EC50 turned out to be 40.4 nM and the Emax was 117%.

`O=C(O)c1c[nH]c2cc(Cl)c(-c3ccc(C4CCCO4)cc3)cc12` (single isomer, unassigned) [Example 154, 6-chloro-5-[4-(tetrahydrofuran-2-yl)phenyl]-1H-indole-3-carboxylic acid] registered an EC50 of 28.3 nM and a Maximum of 104.8%.

Turning to `O=C(O)c1c[nH]c2cc(Cl)c(-c3ccc(O[C@H]4CCCC[C@@H]4O)cc3)cc12` [Example 50, 6-chloro-5-(4-{[(1S,2S)-2-hydroxycyclohexyl]oxy}phenyl)-1H-indole-3-carboxylic acid], the response was half-maximal at 204 nM (EC50) and the Emax was 79%.

Consider `O=C(O)c1c[nH]c2cc(Cl)c(-c3ccc(-c4ccccc4O)cc3)cc12` [Example 67, 6-chloro-5-(2′-hydroxybiphenyl-4-yl)-1H-indole-3-carboxylic acid], for which the response was half-maximal at 2.4 nM (EC50) and the Emax was 112%.

Consider `COc1cc(-c2cc3c(C(=O)O)c[nH]c3cc2Cl)ccc1C(C)(C)O` [Example 56, 6-chloro-5-(4-(2-hydroxypropan-2-yl)-3-methoxyphenyl)-1H-indole-3-carboxylic acid], for which the EC50 worked out at 334 nM and the Emax was found to be 137%.

Take `COc1nc(N2CCOCC2)ccc1-c1cc2c(C(=O)O)c[nH]c2cc1Cl` [Example 174, 6-chloro-5-[2-methoxy-6-(morpholin-4-yl)pyridin-3-yl]-1H-indole-3-carboxylic acid]: a half-maximal response (EC50) required 15.3 nM and the Emax turned out to be 49.4%.

For the molecule `O=C(O)c1n[nH]c2cc(Cl)c(-c3ccc(C4CCOCC4)cc3)cc12` [Example 104, 6-Chloro-5-(4-(tetrahydro-2H-pyran-4-yl)phenyl)-1H-indazole-3-carboxylic acid], a half-maximal effect (EC50) was put at 36.5 nM and the Emax was 88%.

On to `O=C(O)c1c[nH]c2cc(Cl)c(-c3ccc(OCCO)cc3F)cc12` [Example 86, 6-chloro-5-[2-fluoro-4-(2-hydroxyethoxy)phenyl]-1H-indole-3-carboxylic acid], for which the EC50 was 99.2 nM and the Emax was found to be 99%.

In turn, `O=C(O)c1c[nH]c2cc(Cl)c(-c3ccc(C4CCCO4)cc3)cc12` (single isomer, unassigned) [Example 155, 6-chloro-5-[4-(tetrahydrofuran-2-yl)phenyl]-1H-indole-3-carboxylic acid] showed an EC50 of 47.8 nM and a Maximum of 126.9%.
